From patent publication US8227459B2, “Diamino-phenothiazinyl derivatives as antiviral treatments” (priority 2007, dated 2012)

Legend:
LASV = type: cell-based, Lhasa virus
WNV = type: cell-based, West Nile virus
RVFV = type: cell-based, Rift Valley Fever virus
VEEV Trinidad virus = type: cell-based, Venezuelan Equine Encephalitis virus
WEEV = type: cell-based, Wester Equine Encephalitis virus
EBOV [1] = type: cell-based, Ebola virus
PTV = type: cell-based, Punta Toro Virus
EEEV = type: cell-based, Easter Equine Encephalitis virus
HCV = type: cell-based, hepatitis C virus
EBOV [2] = system: EBOV; parameters: species or system mice; conditions: mouse, in vivo, ip
CHK = type: cell-based, chikungunya virus
Marburg virus = system: Marburg virus; parameters: species or system mice; conditions: mouse, in vivo, ip
DENV = type: cell-based, Dengue virus

Molecule | EC99 LASV (LASV) | EC99 WNV (WNV) | EC99 RVFV (RVFV) | EC99 VEEV (VEEV Trinidad virus) | EC99 DENV (DENV) | also measured
CN(C)c1cc(Cl)c2nc3c(Cl)cc(=[N+](C)C)cc-3sc2c1 [Compound 4] | <5 µM | <1 µM | 0.05 µM | <1 µM |  | 
Cc1cc(=[N+](C)C)cc2sc3cc(N(C)C)cc(C)c3nc1-2.[Cl-] [Dimethyl MB, dimethylmethylene blue] | <1 µM | 0.025 to 0.1 µM | <10 µM | 0.02 to 0.1 µM |  | EC99 WEEV (WEEV): 0.1 µM; EC99 EBOV (EBOV [1]): 0.025 to 0.1 µM; EC99 PTV (PTV): 5 µM; EC99 EEEV (EEEV): <0.1 µM; EC99 HCV (HCV): 0.2 to 0.5 µM; prophylaxis of study group against EBOV (EBOV [2]): complete prophylaxis; survival, EBOV (EBOV [2]): 100%; EC99 CHK (CHK): 0.1 to 1 µM; day by which surviving mice had recovered, Marburg (Marburg virus): ≤ 9 days; prophylaxis of study group against Marburg (Marburg virus): 60%
Azure B |  |  |  | 0.1 to 1 µM | 1 µM | 
CN(C)c1ccc2nc3ccc(N)cc3[s+]c2c1.[Cl-] [Azure A] |  |  |  | 0.1 to 1 µM | 1 µM | 
CN(C)c1ccc2nc3ccc(=[N+](C)C)cc-3sc2c1 [Methylene Blue (MB), Methylene Blue] |  | <1 µM | >5 µM | <1 µM | 10 µM | EC99 WEEV (WEEV): 1 µM; EC99 EBOV (EBOV [1]): >3.2 µM; EC99 EEEV (EEEV): 1 µM; EC99 HCV (HCV): 0.02 to 0.08 µM; EC99 CHK (CHK): 1 µM
Cc1cc2nc3ccc(N(C)C)cc3[s+]c2cc1N.[Cl-] [Toluidine Blue] |  |  |  | <10 µM | 1 µM | 
CN(C)c1cc(F)c2nc3c(F)cc(=[N+](C)C)cc-3sc2c1 [Compound 3] | >5 µM | 1 µM | >5 µM | <1 µM |  | 
CNc1ccc2nc3ccc(N)cc3[s+]c2c1.[Cl-] [Azure C] |  |  |  | 0.1 µM | <1 µM | 
